Data from patent US20110124647A1, “INSECTICIDAL DERIVATIVES OF SUBSTITUTED BENZYLAMINES” (priority 2007, published 2011).
Blank lines part the entries; values can stand above or below the compound they belong to.

Assays:
[1] = tested on: greenhouse red spider mite (Tetranychus urticae); test: Tetranychus test, OP-resistant (TETRUR), spray treatment; format: in vivo; settings: 100 g/ha
Protocol: To produce a suitable preparation of active compound, 1 part by weight of active compound is mixed with the stated amounts of solvents and emulsifier, and the concentrate is diluted with emulsifier-containing water to the desired concentration.
Discs of bean leaves (Phaseolus vulgaris) which are infested by all stages of the greenhouse red spider mite (Tetranychus urticae) are sprayed with a preparation of active compound of the desired concentration.
After the desired period of time, the effect in % is determined. 100% means that all spider mites have been killed; 0% means that none of the spider mites have been killed.

[2] = tested on: green peach aphid (Myzus persicae); test: Myzus test (MYZUPE), spray treatment; format: in vivo; settings: 20 g/ha
Protocol: [table] To produce a suitable preparation of active compound, 1 part by weight of active compound is mixed with the stated amounts of solvent and emulsifier, and the concentrate is diluted with emulsifier-containing water to the desired concentration. Disks of Chinese cabbage (Brassica pekinensis) which are infested with all stages of the green peach aphid (Myzus persicae) are sprayed with a preparation of active compound of the desired concentration. After the desired period of time, the effect in % is determined. 100% means that all aphids have been killed; 0% means that none of the aphids have been killed. [table] To produce a suitable preparation of active compound, 1 part by weight of active compound is mixed with the stated amounts of solvent and emulsifier, and the concentrate is diluted with emulsifier-containing water to the desired concentration. Disks of Chinese cabbage (Brassica pekinensis) which are infested with all stages of the green peach aphid (Myzus persicae) are sprayed with a preparation of active compound of the desired concentration. After the desired period of time, the effect in % is determined. 100% means that all aphids have been killed; 0% means that none of the aphids have been killed.

Compound: CC(NC(=O)NCCCl)c1ccccc1Cl (stereo not drawn) [1-(2-chloroethyl)-3-[1-(2-chlorophenyl)ethyl]urea]
logP (Log P): 2.3

Compound: C[C@H](NC(=O)NCCCl)c1ccccc1 [1-(2-chloroethyl)-3-[(1S)-1-phenylethyl]urea]
logP (Log P): 1.76

Compound: COCCNC(=S)N1CCOC1=NC(C)c1ccccc1 (stereo not drawn) [Compound 2]
2. TETRUR spray appl. % 6 d [1]: 90% | 1. MYZUPE spray appl. % 6 d [2]: 100%

Compound: CC(N=C1OCCN1C(=S)NCC(F)(F)F)c1ccccc1 (stereo not drawn) [Compound 3]
2. TETRUR spray appl. % 6 d [1]: 70% | 1. MYZUPE spray appl. % 6 d [2]: 100%

logP (Log P): 4.08
Compound: COCCNC(=S)N1CCO/C1=N\C(C)c1ccccc1Cl (stereo not drawn) [Compound 10, (2Z)-2-{[1-(2-chlorophenyl)ethyl]imino}-N-(2-methoxyethyl)-1,3-oxazolidine-3-carbothioamide]

logP (Log P): 3.07
Compound: C[C@H](/N=C1\OCCN1C(=S)NCC#N)c1ccccc1 [Compound 94, (2Z)—N-(cyanomethyl)-2-[(1-phenylethyl)imino]-1,3-oxazolidine-3-carbothioamide]

Compound: CCC(N=C1OCCN1C(=S)NCc1ccccc1)c1ccccc1 (stereo not drawn) [compound 68]
log P (acidic) (Log P; acidic, Phys. Data cells marked (C)): 4.68 (C)
